# Results taken from paper PMC9163831 (Frontiers in Microbiology, 2022).
# Key:
# [1] = tested on: Salmonella 26FS14 (mcr-1); assay: Antimicrobial combination susceptibility testing (MIC, MBC, checkerboard FICI) in MH broth; type: cell-based, S. typhimurium; details: for MIC (in combination): colistin + IBG checkerboard
# Description: (§1) The susceptibility of the selected Salmonella isolates and quality control isolate (ATCC 25922) to colistin and IBG in MH broth was investigated in accordance with the methods and quality control requirements recommended by the Clinical and Laboratory Standards Institute. Minimal inhibitory concentration (MIC) was the lowest concentration of colistin where visible bacterial growth was inhibited after 24 h of incubation. E. coli ATCC 25922 was used as the quality control strain to ensure the credibility of MICs tested. Susceptibility testing was performed in triplicate and germ-free controls (blank medium). The minimum bactericidal concentration (MBC) in MH broth was measured according to a previous report (Lei et al., [2017]). The synergistic activity between colistin and IBG, and the fractional inhibitory concentration indices (FICI) were measured by checkerboard assays, based on the MIC of each drug (MacNair et al., [2018]). In brief, 50 μL of broth was added to each well, and 50 μL of the indicated concentration of colistin was added into the first well of each line. This process was followed by multiple proportion dilution. Next, 50 μL of samples of different IBG concentrations was added to the dilution medium, and 100 μL of inoculum with a cell density of ~1 × 10^6 colony-forming units (CFU)/mL was added to each well. The FICI was calculated follows:
# (§2) (1) FICI=MIC(Colistinincombination)/MIC(Colistin)+MIC(IBGincombination)/MIC(IBG).
# [2] = tested on: Salmonella 26FS26 (mcr-1); assay: as above; type: cell-based, S. typhimurium; details: for MIC (in combination): colistin + IBG checkerboard
# Description: as §1, §2
# [3] = tested on: Salmonella ATCC14028; assay: as above; type: cell-based, S. typhimurium; details: for MBC / MIC: alone; for MIC (in combination): colistin + IBG checkerboard
# Description: as §1, §2
# [4] = tested on: Salmonella S226 (mcr-1); assay: as above; type: cell-based, S. typhimurium; details: for MIC (in combination): colistin + IBG checkerboard
# Description: as §1, §2
# [5] = tested on: Salmonella S235 (mcr-1); assay: as above; type: cell-based, S. typhimurium; details: for MIC (in combination): colistin + IBG checkerboard
# Description: as §1, §2
# [6] = tested on: human lung epithelial cells (A549); design: method as in Zhang et al., [2019]; details: ref Zhang et al., [2019]; cited from earlier work
# [7] = tested on: erythrocytes in mice; design: method as in Zhang et al., [2019]; details: ref Zhang et al., [2019]; cited from earlier work
# [8] = design: method as in Xiao et al., [2018]; details: IBG supplementation; ref Xiao et al., [2018]; cited from earlier work
# [9] = tested on: mcr-1-positive Salmonella; assay: MIC of colistin with and without IBG; type: cell-based
# Description: as §1, with “well.” for “well. The FICI was calculated follows:”
# [10] = tested on: mcr-1-positive Salmonella; assay: In vitro time-killing curves; type: cell-based
# Description: After MIC determination, different concentrations of colistin were prepared in broth ranging from different doses before bacterial inoculation (10^6 CFU/mL). Growth was checked with control. The tubes containing bacteria and different concentrations of colistin and IBG were incubated at 37°C. The bacterial count (CFU/mL) was determined for each tube after 0, 1, 2, 4, 6, 8, 12, and 24 h of incubation. In brief, 100 μL of culture was obtained for each time point, and serially diluted, and the colonies were counted the next morning. Each concentration test was performed in triplicate.
# [11] = Pharmacokinetics of colistin in ileum contents, mcr-1-positive Salmonella infection model; type: in vivo, broilers; details: for AUC0-24h (intestinal colistin) / Cmax (peak intestinal colistin concentration) / T>MIC: infected broiler
# Description: After 7-day acclimation, 200 infected broilers were randomly divided into five groups (n = 40/group). Pharmacokinetic analysis of colistin (2, 4, 8, and 16 mg/kg) alone and in combination (4 mg/kg colistin, 32 mg/kg IBG) was performed in mcr-1-positive Salmonella infection broilers following oral gavage. At 0.25, 0.5, 0.75, 1, 2, 4, 6, 8, 12, and 24 h after oral administration, four broilers per group were humanely killed and ileum contents (0.5 g) were sampled. The concentration of colistin in each ileum content sample was determined by validated liquid chromatography-tandem mass spectrometry (LC-MS/MS), with minor modifications. Briefly, intestinal contents (0.5 g) were extracted with 10 mL of 10% trichloroacetic acid and 10 mL of 4% lead acetate, homogenized for 1 min, ultrasonicated (30 min) and centrifuged (10,000 g, 10 min) to obtain supernatant. Thereafter, 2 mL of extraction solution was applied to HLB SPE cartridges, which were prewashed with 3 mL of methanol and 3 mL of water. The cartridges were then rinsed with 3 mL of 4% lead acetate. Afterward, the colistin was eluted with 6 mL of 20% methanol. The elute was evaporated to dryness under a gentle N2 stream at 40°C and the residue was dissolved in 0.5 mL of 0.1% formic acid for concentration analysis. The drug concentrations in intestinal contents were determined using HPLC-MS/MS. The calibration range was 0.25–5 μg/g. The intraday and interday precision levels varied from 2.1 to 9.8% and from 4.5 to 7.0%, respectively. The limit of detection (LOD) and limit of quantification (LOQ) were 0.10 and 0.25 μg/g, respectively.
# The values of colistin intestinal content PK parameters in single-dose PK studies were obtained by non-compartmental analysis in Phoenix WinNonlin® 8.2 (Certara, L.P., Princeton, NJ, USA).
# [12] = tested on: mcr-1-positive Salmonella; assay: Pharmacodynamics of colistin combined with IBG in an intestinal infection model; type: in vivo, broilers
# Description: Broilers were inoculated by oral gavage with 1 mL of mcr-1-positive Salmonella culture containing […]. Necropsies of broilers that had died from infection and of euthanized animals were investigated, and the ileum content samples of broilers were taken as previously described (Addwebi et al., [2014]; Wang et al., [2020]). DNA was extracted from ileum content samples using a fecal DNA extraction kit (G-Clone, Beijing, China) in accordance with the manufacturer's instructions.
# Pharmacodynamic analysis of combined colistin and IBG treatment in mcr-1-positive Salmonella infection broilers was performed at 3 h after administration of the inoculum. Afterward, 32 mg/kg of IBG was combined with 2, 4, 8, or 16 mg/kg of colistin, and colistin and IBG were also tested alone at 2, 4, 8, and 16 mg/kg (n = 4 for each group). The broilers were sacrificed after 24 h of therapy, and the intestinal content samples were aseptically removed and homogenized for CFU determination. Untreated control broilers were sacrificed before colistin treatment and at 24 h after treatment.
# [13] = tested on: mcr-1-positive Salmonella; assay: PK/PD analysis, inhibitory effect Imax model; type: in vivo, broilers
# Description: PK/PD analysis was conducted using the inhibitory effect Imax model (Riviere and Toutain, [2011]). This model is described by the following equation: […]
# where E is the antibacterial effect, measured as change in log10CFU/g after 24 h of treatment, compared with the initial log10CFU/g in the untreated control broiler; E0 is the difference in the number of bacteria (log10CFU/g) in control samples between time 0 and 24 h. Imax is the maximum antimicrobial growth inhibition determined as the change in log10CFU/g after 24 h treatment with colistin combined with IBG. X is the predictive variable (expressed as AUC0−24h/MIC, Cmax/MIC, and %T>MIC), and IC50 is the X value producing 50% of the maximum antibacterial effect. The relationship between efficacy and the three PK/PD indices was determined by non-linear least-squares regression in a Phoenix WinNonlin® PD model. The coefficient of determination (R^2) was used to estimate the variance caused by regression for each PK/PD index.
# [14] = tested on: mcr-1-positive Salmonella; assay: Dose determination from AUC/MIC targets; type: in vivo, broilers; details: combination: with 32 mg/kg of IBG
# From the text: The potential optimal dosage can be calculated using the following equation (Toutain et al., [2002], [2007]):
# (3) Dose=(AUC/MIC)·MIC·CL/fu·F,
# where dose (per day) is at steady state; CL is the clearance per day; AUC/MIC is the targeted endpoint for optimal efficacy in hours; MIC is the target pathogen; F is the bioavailability factor (from 0 to 1), and fu is the free fraction of the drug (from 0 to 1). In this study, fu = 1.
# [15] = design: method as in Mead et al. ([2021]); details: oral administration, 75,000 I.U./kg, chicken; ref Mead et al. ([2021]); cited from earlier work
# [16] = single gavage 16 mg/kg colistin
compound,measurement,setting,value
"CC(C)Oc1ccc(/C=N/NC(=N)N/N=C/c2ccc(OC(C)C)cc2)cc1 [IBG, isopropoxy benzene guanidine]",MIC (in combination),[1],8 µg/mL
same,MIC (in combination),[2],16 µg/mL
same,MBC,[3],>512 µg/mL
same,MIC,[3],>512 µg/mL
same,MIC (in combination),[3],4 µg/mL
same,MIC (in combination),[4],16 µg/mL
same,MIC (in combination),[5],16 µg/mL
same,Cytotoxicity IC50,[6],28 µg/mL
same,HC50,[7],> 400 µg/mL
same,Adverse reactions in broilers,[8],without adverse reactions
same,Average daily gain of broilers,[8],improved
same,Diarrhea rate of broilers,[8],reduced
Colistin sulfate,MBC,[1]; alone,4 µg/mL
same,MIC,[1]; alone,2 µg/mL
same,MIC (in combination),[1],0.25 µg/mL
same,MBC,[2]; alone,4 µg/mL
same,MIC,[2]; alone,2 µg/mL
same,MIC (in combination),[2],0.5 µg/mL
same,MBC,[3],1 µg/mL
same,MIC,[3],0.5 µg/mL
same,MIC (in combination),[3],0.125 µg/mL
same,MBC,[4]; alone,4 µg/mL
same,MIC,[4]; alone,2 µg/mL
same,MIC (in combination),[4],0.25 µg/mL
same,MBC,[5]; alone,4 µg/mL
same,MIC,[5]; alone,2 µg/mL
same,MIC (in combination),[5],0.25 µg/mL
same,MIC of colistin,[9]; colistin alone,2 µg/mL
same,MIC of colistin in the presence of IBG,[9]; in the presence of 8 mg/L of IBG,0.25 µg/mL
same,Time-kill result,"[10]; colistin at 4 mg/L, mcr-1-positive Salmonella",Persisting inhibition of bacterial growth
same,Killing characteristic (time-kill profiles),"[10]; varying concentrations, 24 h",concentration-dependent killing
same,Colistin in ileum samples after 4 h,"[11]; doses <16 mg/kg, after gavage",no colistin was detectable
same,AUC0-24h (intestinal colistin),[11]; single gavage 2 mg/kg colistin,31.58 µg·h/mL
same,Cmax (peak intestinal colistin concentration),[11]; single gavage 2 mg/kg colistin,13.74 µg/mL
same,T>MIC,[11]; single gavage 2 mg/kg colistin,15.11%
same,AUC0-24h (intestinal colistin),[11]; single gavage 4 mg/kg colistin,43.79 µg·h/mL
same,Cmax (peak intestinal colistin concentration),[11]; single gavage 4 mg/kg colistin,34.37 µg/mL
same,T>MIC,[11]; single gavage 4 mg/kg colistin,16.48%
same,AUC0-24h (intestinal colistin),[11]; single gavage 8 mg/kg colistin,191.81 µg·h/mL
same,Cmax (peak intestinal colistin concentration),[11]; single gavage 8 mg/kg colistin,75.92 µg/mL
same,T>MIC,[11]; single gavage 8 mg/kg colistin,16.62%
same,AUC0-24h (intestinal colistin),[11]; [16],505.29 µg·h/mL
same,Cmax (peak intestinal colistin concentration),[11]; [16],151.15 µg/mL
same,T>MIC,[11]; [16],99.98%
same,Effect on broilers infected with mcr-1 positive Salmonella,[12]; single dose of 2–16 mg/kg of colistin every 24 h,not significant effect
same,3 × log10 kill effect in vivo,"[12]; ≤ 16 mg/kg of colistin, monotherapy",could not achieve
same,E0,"[13]; Imax model, AUC0-24h/MIC index",0.51 log10CFU/g
same,IC50 (AUC0-24h/MIC producing 50% of the maximum antibacterial effect),"[13]; Imax model, AUC0-24h/MIC index",122.19
same,Imax,"[13]; Imax model, AUC0-24h/MIC index",4.55 log10CFU/g
same,AUC0-24h/MIC for 1 log10 kill,[13]; intestinal infection model,60.66
same,AUC0-24h/MIC for 2 log10 kill,[13]; intestinal infection model,150.15
same,AUC0-24h/MIC for bacteriostatic action,[13]; intestinal infection model,15.62
same,Dose of colistin required to reach 1 × log10 kill,[14],7.54 mg/kg
same,Dose of colistin required to reach 3 × log10 kill,[14],could not achieve
same,Dose of colistin required to reach 4 × log10 kill,[14],could not achieve
same,Dose of colistin required to reach stasis,[14],1.94 mg/kg
same,Time to colistin levels below the LOQ after dosing cessation,[15],≤ 4 h
